From patent US5885814A, “Vaccine containing a serine protease” (priority 1993, dated 1999)
Like-named read-outs stand apart in the source and are kept apart here. Square brackets hold non-standard residues; d marks the D form. Peptide text beside a SMILES is read from it. * marks the point of attachment. Sta = CC(C)C[C@H](N)[C@@H](O)CC(=O)O; Isovaleryl = CC(C)CC(=O)*

Key:
[1] = system: DPP-like protease from F. hepatica E/S products; format: biochemical, Fasciola hepatica
Method: The assay mixture contained 200 μl of 20 μM substrate, 100 μl of enzyme solution and 900 μl of 50 mM Hepes, pH 6.8. The reaction was allowed to proceed at 37° C. and stopped by the addition of 200 μl of 1.7M acetic acid. The liberated AMC was measured in a fluorometer with excitation and emission wavelengths of 370 nm and 440 nm, respectively.
The effect of various metal ions on the hydrolytic activity of the enzyme was examined using both gly-pro-AMC and lys-ala-AMC as substrates in assays as described above.

Mammalian DPP4 = details: J. Biol. Chem. 263 (1988), 6613-6618; cited from earlier work
Mammalian DPP2 = details: J. Biol. Chem. 263 (1988), 6613-6618; cited from earlier work
[2] = gly-pro-AMC and lys-ala-AMC as substrates
[3] = substance 0.5 mM, substrate Gly-Pro-AMC
[4] = substance 0.5 mM, substrate Lys-Ala-AMC
[5] = substance 1 mM, substrate Gly-Pro-AMC
[6] = substance 1 mM, substrate Lys-Ala-AMC
[7] = substance 5 μg/ml, substrate Gly-Pro-AMC
[8] = substance 5 μg/ml, substrate Lys-Ala-AMC
[9] = substance 5 mM, substrate Gly-Pro-AMC
[10] = substance 5 mM, substrate Lys-Ala-AMC
[11] = substance 0.02 mM, substrate Gly-Pro-AMC
[12] = substance 0.02 mM, substrate Lys-Ala-AMC
[13] = substance 0.1 mM, substrate Gly-Pro-AMC
[14] = substance 0.1 mM, substrate Lys-Ala-AMC
[15] = concentration of 5 mM, gly-pro-AMC and lys-ala-AMC as substrates

| Compound | effect on enzyme activity (in words) [1, 2] | Activity remaining (%) Gly-Pro [1, 3] | Activity remaining (%) Lys-Ala [1, 4] | Activity remaining (%) Gly-Pro [1, 5] | Activity remaining (%) Lys-Ala [1, 6] | Activity remaining (%) Gly-Pro [1, 9] | other results |
| --- | --- | --- | --- | --- | --- | --- | --- |
| [Mg+2] [Mg, magnesium] | little effect on enzyme activity | 116% | 105% | 78% | 76% |  |  |
| OCCS [2-Mercaptoethanol] |  |  |  | 87% | 75% |  | activation of the enzyme by thiol activating agents [1]: no activation |
| [Ca+2] [Ca, calcium] | little effect on enzyme activity | 133% | 96% | 57% | 62% |  |  |
| O=S(=O)(F)Cc1ccccc1 [PMSF, phenylmethyl sulfonyl fluoride] | inhibited |  |  |  |  |  | Activity remaining (%) Gly-Pro ([1]; substance 2 mM, substrate Gly-Pro-AMC): 2%; Activity remaining (%) Lys-Ala ([1]; substance 2 mM, substrate Lys-Ala-AMC): 3% |
| aprotinin | not inhibited |  |  |  |  |  | Activity remaining (%) Gly-Pro [1, 7]: 109%; Activity remaining (%) Lys-Ala [1, 8]: 116% |
| [Pb] [Pb, lead] |  |  |  | 109% | 103% | 70% | Activity remaining (%) Lys-Ala [1, 10]: 82% |
| bacitracin | neither showed any inhibitory effect |  |  |  |  |  | Activity remaining (%) Gly-Pro [1, 11]: 100%; Activity remaining (%) Lys-Ala [1, 12]: 100%; Activity remaining (%) Gly-Pro [1, 13]: 100%; Activity remaining (%) Lys-Ala [1, 14]: 100%; inhibition of mammalian DPP4 (Mammalian DPP4): inhibits DPP4 only |
| COc1ccc(C[C@H](N)C(=O)N[C@H]2[C@@H](O)[C@H](n3cnc4c(N(C)C)ncnc43)O[C@@H]2CO)cc1 [Puromycin, puromycin] | neither showed any inhibitory effect |  |  |  |  |  | Activity remaining (%) Gly-Pro [1, 11]: 100%; Activity remaining (%) Lys-Ala [1, 12]: 100%; Activity remaining (%) Gly-Pro [1, 13]: 100%; Activity remaining (%) Lys-Ala [1, 14]: 100%; inhibition of mammalian DPP2 (Mammalian DPP2): will inhibit DPP2 only |
| [Cd] [Cd, cadmium] |  |  |  | 26% | 19% | 6% | inhibition of enzyme activity [1, 15]: > 90%; Activity remaining (%) Lys-Ala [1, 10]: 5% |
| N[C@@H](CS)C(=O)O [Cysteine, cysteine] |  | 104% | 112% | 104% | 105% |  | activation of the enzyme by thiol activating agents [1]: no activation |
| [Co] [Co, cobalt] |  |  |  | 20% | 28% | 4% | inhibition of enzyme activity [1, 15]: > 90%; Activity remaining (%) Lys-Ala [1, 10]: 6% |
| [Mn+2] [Mn, manganese] | little effect on enzyme activity | 102% | 104% | 66% | 66% |  |  |
| O=C(O)CN(CCN(CC(=O)O)CC(=O)O)CC(=O)O [EDTA] |  |  |  |  |  |  | effect on enzyme activity (in words) [1]: not inhibited; Activity remaining (%) Gly-Pro ([1]; pH 6.8, 2000 µM): 108%; Activity remaining (%) Lys-Ala ([1]; pH 6.8, 2000 µM): 121% |
| mercury [Hg] |  |  |  | 7% | 4% | 5% | inhibition of enzyme activity [1, 15]: > 90%; Activity remaining (%) Lys-Ala [1, 10]: 2% |
| [Fe] [Fe, iron] |  |  |  | 6% | 5% | 2% | inhibition of enzyme activity [1, 15]: > 90%; Activity remaining (%) Lys-Ala [1, 10]: 2% |
| N=C(N)c1ccccc1 [Benzamidine] | inhibits the activity |  |  | 77% |  | 35% | Activity remaining (%) Gly-Pro ([1]; substance 10 mM, substrate Gly-Pro-AMC): 23% |
| O[C@H](CS)[C@H](O)CS (racemic) [DTT, dithiothreitol] |  | 77% | 61% | 90% | 62% |  | activation of the enzyme by thiol activating agents [1]: no activation |
| CC(C)CC(=O)N[C@H](C(=O)N[C@H](C(=O)N[C@@H](CC(C)C)[C@@H](O)CC(=O)N[C@@H](C)C(=O)N[C@@H](CC(C)C)[C@@H](O)CC(=O)O)C(C)C)C(C)C [Pepstatin] (Isovaleryl-VV[Sta]A[Sta]-OH) | not inhibited |  |  |  |  |  | Activity remaining (%) Gly-Pro [1, 7]: 108%; Activity remaining (%) Lys-Ala [1, 8]: 92% |
| [Zn] [Zn, zinc] |  | 80% | 37% | 3% | 14% |  | inhibition of enzyme activity ([1]; 1 mM concentration, gly-pro-AMC and lys-ala-AMC as substrates): > 85% |
